Test results published in patent US9670156B2, “Crystal form III of (S)-oxiracetam, preparation method and use thereof” (Chongqing Runze Pharmaceutical Company Limited, priority 2013, dated 2017).

Legend:
[1] = parameters: species or system Beagle dogs; conditions: dog, in vivo; for AUCO-∞ / T1/2 / Tmax / bioavailability of crystal form I and III compared: po
Description: Base on the existing LC-MS method for determination of (S)-oxiracetam in a biological sample, 6 healthy Beagle dogs are used in the experiment. They are weighted 8-10 kg, and divided into two groups of three. They are used to observe the bioavailability of the different crystal forms of (S)-oxiracetam after oral administration to the dogs. The pharmacokinetics of the crystal forms I and III of (S)-oxiracetam in the dogs are studied. And oxiracetam is used as reference preparation to evaluate whether the bioavailability of crystal forms I and III are equivalent. The bioequivalence is evaluated by calculating the pharmacokinetic parameters. Results: The main pharmacokinetic parameters of the crystal forms I and III of (S)-oxiracetam in the Beagle dogs are as follows: Tmax are (1.561±0.398) and (1.498±0.3988), Cmax are (198.076±80.462) and (186.205±50.321) […], respectively; T1/2 are (0.915±0.125) and (0.909±0.112) h, respectively; and AUCO-∞ are (456.268±85.567) and (436.364±75.204) […], respectively.

[2] = parameters: species or system Beagle dogs; conditions: dog, in vivo, po
[3] = Dissolution in aqueous solution compared with other crystal forms; assay type: physicochemical; conditions: compared with other crystal forms of (S)-oxiracetam

## NC(=O)CN1C[C@@H](O)CC1=O [crystal form I, (S)-4-hydroxy-2-oxo-1-pyrrolidine acetamide]
[1]
  AUCO-∞: 456268 ± 85567 µg·h/mL
  T1/2: 54.9 ± 7.5 min
  Tmax: 1.561±0.398
  bioavailability of crystal form I and III compared: exactly the same
[2]
  Cmax: 198 ± 80.5 µg/mL

## NC(=O)CN1C[C@@H](O)CC1=O [crystal form III, (S)-4-hydroxy-2-oxo-1-pyrrolidine acetamide]
[1]
  bioavailability: high bioavailability
  AUCO-∞: 436364 ± 75204 µg·h/mL
  T1/2: 54.5 ± 6.72 min
  Tmax: 1.498±0.3988
  bioavailability of crystal form I and III compared: exactly the same
[2]
  Cmax: 186 ± 50.3 µg/mL
[3]
  dissolution in aqueous solution: dissolves fast
